Measured values reported in patent US20220002816A1, “IDENTIFICATION OF JUND TARGET GENES FOR INHIBITION OF PROSTATE CANCER CELL GROWTH” (Center for Cancer Research & Therapeutic Development, Clark …, priority 2018, published 2022).

What was measured:
Format in all cases: cell-based, Human
DU145 vector cells = assay: Cell proliferation assay (cell counting) after JQ1 treatment; conditions: 5 μM JQ1, 72 hrs, vs DMSO control, p<0.001
Procedure: (§1) Human prostate cancer cell lines (PC3 and DU145) were purchased from ATCC (Manassas, Va.). Cells were cultured in the recommended growth media [MEM media supplemented with 5% fetal bovine serum (FBS)] in 100% humidity at 37° C. with 5% CO2 as described previously. DU145 cells overexpressing JunD (D1), generated from a previous study were cultured as above, with an addition of […] G418 [29].
(§2) DU145 vector and DU145 JunD overexpressed (D1) cells plated at a density of 2×10^4 cells/ml in 24 well plates (for cell proliferation assays) or at a density of 1.5×10^5 cell/ml in 6 well plates (for cell lysates) were treated in the presence or absence of 5 μM JQ1 for 72 hrs. Control cells were treated with DMSO. Cells were then counted using a hemacytometer and cell lysates were collected for western blot analyses.

[1] = system: DU145 JunD overexpressed (D1) cells; assay: as above; conditions: 5 μM JQ1, 72 hrs, DU145 D1 (JunD overexpressing) cells, vs DMSO control, p<0.001
Procedure: as §1, §2

[2] = system: JunD target genes protein levels in DU145 vector cells; assay: Western blot of JunD target gene protein levels after JQ1 treatment; conditions: 5 μM JQ1, 72 hrs
Procedure: as §2
(§3) Following siRNA transient transfections, PC3 and DU145 cell lysates from several independent experiments were collected as previously described. In brief, equal amounts of protein (50 μg) were separated by electrophoresis using 10% SDS-polyacrylamide gels and then transferred to PVDF membranes (Millipore, Billerica, Mass.). After being blocked with 5% milk, the membranes were incubated with specific primary antibodies (1:800 dilution for JunD; 1:500 dilution for anti-PRDX3, anti-CDK2, anti-CDK4, anti-KIF2C, anti-EIF1, anti-PEA15, anti-CCNA1, anti-ADRA2B, anti-TCF4, anti-ANAX2, anti-ELMO2, and anti-ERO1-La; 1:200 dilution for anti-PLCD4, anti-c-MYC, and anti-PTMA; 1:3000 dilution for anti-α-Tubulin) overnight at 4° C. and then incubated with appropriate horseradish peroxidase-conjugated secondary antibody for 1 h. […] The relative intensities of specific protein were determined by ImageJ software (NIH version: 1.8.0_112).

[3] = system: JunD target genes protein levels in DU145 JunD overexpressed (D1) cells; assay: as above; conditions: 5 μM JQ1, 72 hrs
Procedure: as §2, §3

SMILES: Cc1sc2c(c1C)C(c1ccc(Cl)cc1)=N[C@@H](CC(=O)OC(C)(C)C)c1nnc(C)n1-2 [JQ1]
- cell proliferation (DU145 vector cells): significantly reduced
- cell proliferation [1]: significantly reduced
- JunD target genes protein levels [2]: decreased
- JunD target genes protein levels [3]: decreased
